Source: patent publication US8080251B2, “Antigenic peptides” (Centre for DNA Fingerprinting and Diagnostics, priority 2004, dated 2011)

Key:
[1] = tested on: serum IgG antibodies (patient sera); test: ELISA of serum IgG antibody response of TB patients to rRv2608 protein / synthetic peptides; assay type: binding, human; conditions: for Reactivity with patient sera: TB patient sera, ELISA; for Mean (O.D. at 492 nm): humoral response, antigen 2 μg/ml
[2] = tested on: peripheral blood mononuclear cells (PBMCs); test: Lymphocyte (T cell) proliferation assay, MTT readout; assay type: cell-based, human; conditions: comparison between patient categories / between peptides
[3] = Category I patients (TB diagnosed for the first time, n=22)
[4] = Category II patients (relapsed TB, n=21)
[5] = Category III patients (extrapulmonary TB, n=8)

| Molecule | Reactivity with patient sera [1] | Mean (O.D. at 492 nm) [1, 3] | Mean (O.D. at 492 nm) [1, 4] | Mean (O.D. at 492 nm) [1, 5] | T cell proliferative response [2] | T cell proliferative response ([2]; listed as Peptide 2) | T cell proliferative response ([2]; listed as peptide 2) | Serum reactivity of extrapulmonary TB patients ([1]; Category III compared to Category I or II) | Serum reactivity compared with Hsp10 ([1]; all patient categories, p>0.05) | Serum reactivity of healthy controls ([1]; healthy controls (n=10) vs patients, p=0.0002) |
| --- | --- | --- | --- | --- | --- | --- | --- | --- | --- | --- |
| DNIGNANIGFGNK (listed as Mycobacterium tuberculosis) [Peptide P1a, 13-residue overlapping peptide, component of peptide 1] | react equally well with patient sera | 0.426 | 0.770 | 0.473 |  |  |  |  |  |  |
| DNIGNANIGFGNRGDANIGIGNIGDRNLGIGNTGNWK (listed as Mycobacterium tuberculosis) [Peptide P1] | strongly react with patient sera | 0.412 | 0.675 | 0.483 |  |  |  |  |  |  |
| DRNLGIGNTGNWK (listed as Mycobacterium tuberculosis) [Peptide P1e, 13-residue overlapping peptide, component of peptide 1] | react equally well with patient sera | 0.407 | 0.711 | 0.405 |  |  |  |  |  |  |
| GIGNIGDRNLGIK (listed as Mycobacterium tuberculosis) [Peptide P1d, 13-residue overlapping peptide, component of peptide 1] | react equally well with patient sera | 0.482 | 0.787 | 0.527 |  |  |  |  |  |  |
| GNPNRPDGGILTK (listed as Mycobacterium tuberculosis) [Peptide P2c, 13-residue overlapping peptide, part of peptide 2] | react equally well with patient sera | 0.491 | 0.632 | 0.410 | comparatively higher T cell response |  |  |  |  |  |
| LSFTLTGNPNRPK (listed as Mycobacterium tuberculosis) [Peptide P2b, 13-residue overlapping peptide, part of peptide 2] | react equally well with patient sera | 0.450 | 0.498 | 0.422 |  |  |  |  |  |  |
| NIGFGNRGDANIK (listed as Mycobacterium tuberculosis) [Peptide P1b, 13-residue overlapping peptide, component of peptide 1] | react equally well with patient sera | 0.469 | 0.775 | 0.520 |  |  |  |  |  |  |
| RGDANIGIGNIGK (listed as Mycobacterium tuberculosis) [Peptide P1c, 13-residue overlapping peptide, component of peptide 1] | react equally well with patient sera | 0.416 | 0.810 | 0.380 |  |  |  |  |  |  |
| RPGLDELSFTLTGNPNRPDGGILTK (listed as Mycobacterium tuberculosis) [Peptide P2] | strongly react with patient sera | 0.480 | 0.706 | 0.441 | comparatively higher T cell response | higher response in fresh infection cases | fresh infection cases>relapsed TB>extrapulmonary TB cases |  |  |  |
| RPGLDELSFTLTK (listed as Mycobacterium tuberculosis) [Peptide P2a, 13-residue overlapping peptide, part of peptide 2] | react equally well with patient sera | 0.473 | 0.689 | 0.392 |  |  |  |  |  |  |
| rRv2608: 59.6 kDa recombinant M. tuberculosis PPE_MPTR protein Rv2608, expressed in E. coli BL21 as 6×His-tag fusion protein (protein, left off: small tags and cut ends) MNFAVLPPEVNSARIFAGAGLGPMLAAASAWDGLAEELHAAAGSFASVTTGLAGDAWHGPASLAMTRAASPYVGWLNTAAGQAAQAAGQARLAASAFEATLAATVSPAMVAANRTRLASLVAANLLGQNAPAIAAAEAEYEQIWAQDVAAMFGYHSAASAVATQLAPIQEGLQQQLQNVLAQLASGNLGSGNVGVGNIGNDNIGNANIGFGNRGDANIGIGNIGDRNLGIGNTGNWNIGIGITGNGQIGFGKPANPDVLVVGNGGPGVTALVMGGTDSLLPLPNIPLLEYAARFITPVHPGYTATFLETPSQFFPFTGLNSLTYDVSVAQGVTNLHTAIMAQLAAGNEVVVFGTSQSATIATFEMRYLQSLPAHLRPGLDELSFTLTGNPNRPDGGILTRFGFSIPQLGFTLSGATPADAYPTVDYAFQYDGVNDFPKYPLNVFATANAIAGILFLHSGLIALPPDLASGVVQPVSSPDVLTTYILLPSQDLPLLVPLRAIPLLGNPLADLIQPDLRVLVELGYDRTAHQDVPSPFGLFPDVDWAEVAADLQQGAVQGVNDALSGLGLPPPWQPALPRLF |  |  |  |  |  |  |  | less reactivity | equal to or higher than the response to Hsp10 | significantly less when compared to that of patients |
